Results from US11839683B2, “Method of rapidly achieving therapeutic concentrations of triptans for treatment of migraines” (EMERGEX USA CORPORATION, priority 2016, dated 2023).
Like-named read-outs stand apart in the source and are kept apart here. Values belong to the compound of their own block, whether it stands above or below them.

Assays:
migraine = settings: cited from earlier work
clinical = settings: human, in vivo
Experimental: The final treatment administered was 3.8 mg on a 10 cm^2 patch using an applicator with 0.52 Joule of application energy in the intracutaneous microneedle system described herein. The products tested were:
(§1) This was a single-center, open-label, randomized five-way crossover study (Part 1) followed by a sequential study of two additional treatments (Parts 2 and 3). After obtaining informed consent and establishing eligibility, each subject received each of the seven study treatments once, followed by in-clinic monitoring and extensive blood sample collection for pharmacokinetic analysis. […] Plasma samples from the initial dosing days were sent to the analytical laboratory for analysis, and tolerability for each of the dose levels was summarized. […] During Part 3, subjects received a single 3.8 mg patch (applied with a 0.52 J applicator) and also completed identical procedures to the previous dosing days. After completion of the seven dosing days, subjects were assessed one final time and dismissed from the study.
Twenty subjects were enrolled in the study, 10 males and 10 females. The subjects mean age was 29 years±3.5 years with a mean BMI of 24.4±3.5.
(§2) PK parameters were summarized by treatment group using descriptive statistics (arithmetic means, standard deviations, coefficients of variation, sample size, minimum, maximum, and median).
Graphs of apparent dose linearity and proportionality of PK parameters (AUCt, AUCinf and Cmax) were compiled.

[1] = in vivo
From the text: as §1, §2

[2] = cited from earlier work
[3] = TABLET 10 mg, 1 hour, Tfelt-Hansen et al, 1998
[4] = TABLET 10 mg, 2 hour, Tfelt-Hansen et al, 1998
[5] = WAFER 5 mg, 1 hour, Ahrens et al, 1999
[6] = WAFER 5 mg, 2 hour, Ahrens et al, 1999
[7] = WAFER 10 mg, 1 hour, Ahrens et al, 1999
[8] = WAFER 10 mg, 2 hour, Ahrens et al, 1999
[9] = TABLET 2.5 mg, 1 hour, Bomhof et al, 1999
[10] = TABLET 2.5 mg, 2 hour, Bomhof et al, 1999
[11] = TABLET 80 mg, 1 hour, Sheftell et al 2003
[12] = TABLET 80 mg, 2 hour, Sheftell et al 2003
[13] = TABLET 80 mg, 4 hour, Sheftell et al 2003
[14] = TABLET 100 mg, 1 hour, Tfelt-Hansen et al, 1998
[15] = TABLET 100 mg, 2 hour, Tfelt-Hansen et al, 1998

Structure (SMILES): CN(C)CCc1c[nH]c2ccc(Cn3cncn3)cc12 [Rizatriptan]
- % PAIN FREE (migraine; [3]): 10.4%
- % PAIN RELIEF (migraine; [3]): 36.6%
- % PAIN FREE (migraine; [4]): 40.3%
- % PAIN RELIEF (migraine; [4]): 67.0%
- % PAIN FREE (migraine; [5]): 7.7%
- % PAIN RELIEF (migraine; [5]): 39.8%
- % PAIN FREE (migraine; [6]): 34.8%
- % PAIN RELIEF (migraine; [6]): 58.6%
- % PAIN FREE (migraine; [7]): 13.0%
- % PAIN RELIEF (migraine; [7]): 44.9%
- % PAIN FREE (migraine; [8]): 42.2%
- % PAIN RELIEF (migraine; [8]): 74.1%

- Tmax Med (Range) (clinical; sc, 6 mg): 10 (5-20)
Structure (SMILES): CNS(=O)(=O)Cc1ccc2[nH]cc(CCN(C)C)c2c1 [SC Suma]

- AUC0-last/Dose (clinical; po, 2.5 mg): 8.6
- Tmax Med (Range) (clinical; po, 2.5 mg): 60 (30-240)
Structure (SMILES): CN(C)CCc1c[nH]c2ccc(C[C@H]3COC(=O)N3)cc12 [Oral Zolmi]

Structure (SMILES): CNS(=O)(=O)CCc1ccc2[nH]cc(C3CCN(C)CC3)c2c1 [naratriptan]
- % PAIN FREE (migraine; [9]): 3.3%
- % PAIN RELIEF (migraine; [9]): 27.7%
- % PAIN FREE (migraine; [10]): 20.7%
- % PAIN RELIEF (migraine; [10]): 48.4%
- pain freedom at 2 hours (migraine; lowest oral dose): 18%
- pain relief at 2 hours (migraine; lowest oral dose): 49%

Structure (SMILES): CNCCc1c[nH]c2ccc(C[C@H]3COC(=O)N3)cc12 [N-desmethyl zolmitriptan]
- Mean AUCinf of N-desmethyl metabolite ([1]; human): 14.55 ng·H/mL
- Mean Cmax of N-desmethyl metabolite ([1]; human): 2.08 ng/mL
- Tmax of N-desmethyl metabolite ([1]; human): 54.7 to 65.0 min
- Mean AUCinf of N-desmethyl metabolite ([1]; human, 0.48 mg): 1.38 ng·H/mL
- Mean Cmax of N-desmethyl metabolite ([1]; human, 0.48 mg): 0.22 ng/mL
- Mean AUCinf of N-desmethyl metabolite ([1]; human, 3.8 mg): 8.17 ng·H/mL
- Mean Cmax of N-desmethyl metabolite ([1]; human, 3.8 mg): 1.77 ng/mL
- elimination half life (t1/2) of the metabolite ([1]; human, po): 2.7-3.31 H
- time to peak plasma concentration of the N-desmethyl metabolite [1]: around 1 hour
- time to peak plasma concentration of the N-desmethyl metabolite ([1]; po): 2.7 h

Structure (SMILES): CN[C@@H]1CCc2[nH]c3ccc(C(N)=O)cc3c2C1 [frovatriptan]
- efficacy in 2-hour response, 2-hour pain free compared to the other triptans (migraine; oral): lowest efficacy

Structure (SMILES): CN1CCC[C@@H]1Cc1c[nH]c2ccc(CCS(=O)(=O)c3ccccc3)cc12 [Eletriptan]
- % PAIN FREE (migraine; [11]): 10.0%
- % PAIN RELIEF (migraine; [11]): 32.0%
- % PAIN FREE (migraine; [12]): 27.0%
- % PAIN RELIEF (migraine; [12]): 59.0%
- % PAIN FREE (migraine; [13]): 49.0%
- % PAIN RELIEF (migraine; [13]): 79.0%

Structure (SMILES): CNS(=O)(=O)Cc1ccc2[nH]cc(CCN(C)C)c2c1 [Sumatriptan, sumatriptan]
- % PAIN FREE (migraine; [14]): 7.8%
- % PAIN RELIEF (migraine; [14]): 27.9%
- % PAIN FREE (migraine; [15]): 32.8%
- % PAIN RELIEF (migraine; [15]): 61.8%
- Tmax after oral tablet administration ([2]; oral tablet): about 2 hours
- bioavailability, oral administration (as a succinate) ([2]; oral): about 15%
- Tmax achieved earlier than the conventional tablet ([2]; rapid-release tablet formulation, on average): 10 to 15 min
